Measurements taken from patent US10583102B2, “Targeting liver nuclear receptors as a treatment for wilson disease” (THE JOHNS HOPKINS UNIVERSITY, priority 2014, dated 2020).
Entries after “also recorded” stand apart in the source; their conditions may differ.

How the values were obtained:
[1] = Animal and liver weights during/after T0901317 treatment in chow; type: in vivo, mice; details: for body weight: 50 mg/kg/day thrice weekly in chow, 8 weeks
Method: (§1) ATP7b knockout (ATP7b^−/−) and heterozygote (ATP7b^+/−) mice were generated as previously prescribed (Buiakova et al., 8(9) HUM. MOL. GENETICS 1665-71 (1999). T0901317 (Cayman Chemical, Ann Arbor, Mich.) powder was mixed with Teklad 2018 powdered chow (Harlan, Madison Wis.) and fed to animals aged 6-7 weeks old at a dose of 50 mg/kg/day, thrice weekly. After 8 weeks, animals were sacrificed. The animals were housed at the Johns Hopkins University School of Medicine (JHUSOM) Animal Care Facility and protocols designed according to National Institutes of Health (USA) guidelines. Normal pellet chow was fed to the mice on days they were not receiving the drug. Animals were weighed weekly. At the time of sacrifice, trunk blood and livers were harvested. The Institutional Animal Care and Use Committee (IACUC) of JHUSOM approved the above experimental protocols.

Atp7b−/− mice [2] = test: Quantitative RT-PCR of liver mRNA, inflammatory and fibrosis genes; type: in vivo
Method: as §1
(§2) Sections of mouse liver were immersed in RNAlater, homogenized, and frozen at −80° C. RNA was isolated with TRIzol via the manufacturer's instructions, then transcribed into cDNA using the SuperScript III first strand synthesis system (Invitrogen). RNA quantity was determined by an ND-1000 spectrophotometer (NanoDrop, Wilmington, Del.). Samples were run in triplicate and performed on a 7900 HT machine (Applied Biosystems) and analyzed with the SDS 2.4.1 software. GAPDH served as the control to which gene of interest expression was normalized.
(§3) Quantitative RT-PCR for ABC1, HmGCoA1, CYP71a, FASN, LXRα (NR1H3), LXRβ (NR1H2), RXRα (NR2B2), SREBP1, FXR, TIMP1, COL1a, and GAPDHwas performed with sequence-specific primers and probes using TaqMan gene expression assays (Applied Biosystems, Foster City, Calif.).

[3] = tested on: LXR/RXR signaling pathway; test: Quantitative RT-PCR of liver mRNA, genes under control of LXR/RXR signaling pathway; type: in vivo, mice; details: for SREBP1 mRNA / FASN mRNA expression: treated vs untreated
Method: as §1, §2, §3

Atp7b−/− mice [4] = test: Hepatic triglyceride colorimetric assay; type: in vivo
Method: as §1, with “protocols. The triglyceride colorimetric assay kit (Cayman Chemical, Ann Arbor, Mich.) was used for measuring hepatic triglyceride content using the provided protocol. 120-160 mg of liver tissue was homogenized and samples were assayed in triplicate. Absorbance at 540 nm was detected on an Envision plate reader (Perkin-Elmer). Triglyceride concentrations were calculated using a standard curve, then normalized to the volume of homogenate and the mass of the liver tissue.” for “protocols.”

Atp7b−/− mice [5] = test: Hepatic oxysterol measurement by LC/MS; type: in vivo; details: Atp7b knockout mice, data not shown
Method: as §1, with “protocols. Oxysterols were extracted and measured using the protocol described by McDonald et al. (53(7) J. LIPID RES. 1399-1409 (2012)). […] Quantitation was performed by establishing a linear relationship between measured amounts of the analytical standards combined with the internal standard cocktail. This regression line was applied to the measured peak areas for analytes in the extracted samples to determine measured quantities present in each sample. […]” for “protocols.”

Atp7b−/− mice [6] = test: Liver histology (H&E, inflammation scoring); type: in vivo
Method: as §1, with “protocols. Sections of mouse liver were covered in OCT and snap frozen in liquid nitrogen. Sections were then cut and stained with hematoxylin and eosin. De-identified samples were analyzed for the presence of inflammation by an expert in veterinary pathology (D.H.). Inflammation was scored as follows: none, 0; mild, 1; moderate, 2; and severe, 3. Severely inflamed livers had karyomegaly, cytomegaly, binucleate hepatocytes, intranuclear vacuoles, multiple nuclei, and inflammatory cell infiltrates.” for “protocols.”

Atp7b−/− mice [7] = test: Serum liver biochemistries (AST, ALT, bilirubin, albumin); type: in vivo; details: treated Atp7b−/− mice; p<0.05 vs untreated
Method: as §1, with “protocols. Animals were fasted overnight before sacrifice. Whole blood was collected from the aorta and vena cava in amber Microtainer tubes (Becton Dickinson, Franklin Lakes, N.J.), and serum was separated after centrifugation at 5000 rpm for 10 minutes. Liver biochemistries and lipid panels were performed in the Molecular and Comparative Pathobiology Core Laboratory of JHUSOM.” for “protocols.”

Atp7b−/− mice [8] = test: Serum lipid panel; type: in vivo; details: drug treated Atp7b−/− mice vs untreated Atp7b−/−
Method: as §1, with “protocols. Animals were fasted overnight before sacrifice. Whole blood was collected from the aorta and vena cava in amber Microtainer tubes (Becton Dickinson, Franklin Lakes, N.J.), and serum was separated after centrifugation at 5000 rpm for 10 minutes. Liver biochemistries and lipid panels were performed in the Molecular and Comparative Pathobiology Core Laboratory of JHUSOM.” for “protocols.”

Atp7b−/− mice [9] = test: Hepatic copper measurement by atomic absorption spectroscopy; type: in vivo; details: drug-treated Atp7b−/− mice, end of experiment
Method: as §1, with “protocols. Hepatic copper levels were measured by polarized atomic absorption spectroscopy as previously described. Briefly, 50-100 mg of liver was dissolved in 2 ml of HNO3 at 90° C. Copper levels were determined using a Hitachi Z-8279 spectrophotometer. Samples were compared to freshly prepared standards.” for “protocols.”

[10] = Atp7b−/− mice, treated vs untreated

SMILES: O=S(=O)(c1ccccc1)N(CC(F)(F)F)c1ccc(C(O)(C(F)(F)F)C(F)(F)F)cc1 [T0901317, N-(2,2,2-trifluoroethyl)-N-{4-[2,2,2-trifluoro-1-hydroxy-1-(trifluorometh-yl)ethyl]phenyl}benzene sulfonamide]
- liver weight, treated vs untreated ([1]; KO (Atp7b−/−) mice, end of treatment): neither a difference
- body weight ([1]; drug-treated HET (Atp7b+/−) mice, p<0.05 vs untreated): 26.43 ± 1.35 g
- body weight ([1]; drug-treated KO (Atp7b−/−) mice): 24.03 ± 0.91 g
- increase in expression of collagen (Col1a mRNA) (Atp7b−/− mice [2]; Atp7b−/− mice): completely abolished
- IL-1β expression (Atp7b−/− mice [2]; [10]): significantly reduced
- TNFα expression (Atp7b−/− mice [2]; [10]): significantly reduced
- iNOs expression (Atp7b−/− mice [2]; [10]): significantly reduced
- expression of inflammatory genes (TNFα, IL-1β, iNOs) (Atp7b−/− mice [2]; heterozygote animals): no effect
- SREBP1 mRNA ([3]; ATP7b+/− mice): increased
- SREBP1 mRNA ([3]; ATP7b−/− mice): no change
- FASN mRNA expression ([3]; Atp7b+/− mice): significantly increased
- FASN mRNA expression ([3]; Atp7b−/− mice): significantly increased
- ABC1 mRNA levels ([3]; both KO and HET mice): did not change
- CYP7A1 mRNA levels ([3]; both KO and HET mice): did not change
- HMGCS1 mRNA levels ([3]; both KO and HET mice): did not change
- NR1H2 mRNA levels ([3]; both KO and HET mice): did not change
- NR1H3 mRNA levels ([3]; both KO and HET mice): did not change
- NR1H4 mRNA levels ([3]; both KO and HET mice): did not change
- hepatic triglycerides (Atp7b−/− mice [4]; drug treated HET mice vs untreated HET): statistically significant increase
- hepatic triglycerides (Atp7b−/− mice [4]; drug treated KO mice vs untreated KO): statistically significant increase
- changes in hepatic oxysterol levels (Atp7b−/− mice [5]): did not reverse
- effect on liver histology (Atp7b−/− mice [6]; heterozygote mice): no effect
- treated mice in which pathologic liver histology features disappeared (Atp7b−/− mice [6]; treated KO mice, light microscopy): 5/7
- serum ALT (mean) (Atp7b−/− mice [7]): 285±115 U/L
- serum AST (mean) (Atp7b−/− mice [7]): 222±64 U/L
- serum albumin (Atp7b−/− mice [7]): 2.93 ± 0.19 g/dL
- serum total bilirubin (Atp7b−/− mice [7]): 0.85 ± 0.22 mg/dL
- serum low density lipoprotein (LDL) (Atp7b−/− mice [8]; p<0.001): significantly increased; also recorded: more than doubled
- serum total cholesterol (Atp7b−/− mice [8]; p<0.001): significantly increased; also recorded: more than doubled
- serum high density lipoprotein (HDL) (Atp7b−/− mice [8]; p<0.005): significantly increased; also recorded: more than doubled
- hepatic copper levels (Atp7b−/− mice [9]): did not prevent copper accumulation
